The nature of data set [1]: Self-assessment of pain before and after endodontic treatment (Control vs Experimental). It counts as in vivo, patients. Particulars: for self-assessed pain, 6 hours / self-assessed pain, 24 hours / self-assessed pain, 48 hours / self-assessed pain, 120 hours / self-assessed pain, Before: scale of 1-10; for self-assessed pain, 6 hours: 6 hours following endodontic treatment; for self-assessed pain, 24 hours: 24 hours following endodontic treatment; for self-assessed pain, 48 hours: 48 hours following endodontic treatment; for self-assessed pain, 120 hours: 120 hours following endodontic treatment; for self-assessed pain, Before: prior to endodontic treatment (baseline). As to the method:
Use of TCA during endodontic treatment is associated with decreased incidence of pain following endodontic treatment. Without wishing to be bound by the theory, it is believed that the TCA composition eliminates unmyelinated C fibers in the apical pulp, particularly in mandibular molars. To assess the decreased pain, individuals were asked to provide a self-assessment, on a scale of 1-10, of pain prior to endodontic treatment, and 6, 24, 48, and 120 hours following endodontic treatment. Patients were divided into two groups, one group (Control, N=9) receiving standard endodontic treatment including sodium hypochlorite as the primary irrigant, with occasional (as necessary) flushes with 17% EDTA, and one group (Experimental, N=10) receiving endodontic treatment including the composition described herein as a pre-treatment applied to pulp to facilitate navigating calcified canals and after initial shaping with patency. The experimental group received sodium hypochlorite irrigation and, as necessary, EDTA flushing, as in the control group.

Data set [2] has as its system dental pulp. Particulars: cited from earlier work.
Data set [3] can be described thus: Experiments with TCA in endodontic treatment including sodium hypochlorite (clinical and radiographic observations). It counts as in vivo. The text has this:
FIGS. 7 and 8 show radiographic images from prior to (FIG. 7) and following (FIG. 8) endodontic treatment with a TCA composition as described herein. The image in FIG. 7 is of a tooth that had previously undergone endodontic treatment, but without TCA as a debridement solution.

For data set [4] the following is noted: cited from earlier work.
[5] abbreviates: endodontic treatment including sodium hypochlorite.
Where [6] appears, read: endodontic treatment including sodium hypochlorite, particularly in lower molar cases.

Results on two molecules are retold here after patent US12186414B2, “Composition and method for endodontic debridement” (priority 2018, dated 2025).

Bounds are passed on as bounds.

Consider `OCl` [Control, sodium hypochlorite, reference compound], for which, in data set [1], the “self-assessed pain, 6 hours” value was 1; the “self-assessed pain, 24 hours” value stood at 0.89; the “self-assessed pain, 48 hours” value was 1.44; the “self-assessed pain, 120 hours” value came to 0.56. In data set [1], the “self-assessed pain, Before” value is recorded as 2.67. In addition, the “amount of time that the treatment must be used” value in data set [2] (known debridement method) was 10 min. In data set [2] (strength of 6.25%), the “time to dissolve dental pulp” value was at least 10 min.

The term pKa denotes the negative logarithm of the acid dissociation constant. Turning to `O=C(O)C(Cl)(Cl)Cl` [TCA, trichloroacetic acid], in data set [1] (compared to the gold standard control, sodium hypochlorite), the “subjective levels of pain following endodontic treatment compared to control” value was “reduced subjective levels of pain”. Further, the “self-reported pain level at 6 hours” value in data set [1] (patients presenting with necrosis, 6 hours following treatment) amounted to 0.5. For the same molecule, in data set [1] (patients presenting with necrosis, 24 hours following treatment), the “self-reported pain level at 24 hours” value amounted to 0.25. Moreover, in data set [1] (patients presenting with necrosis, 48 hours following treatment), the “self-reported pain level at 48 hours” value was found to be 0. In addition, the “self-reported pain level at 120 hours” value in data set [1] (patients presenting with necrosis, 120 hours following treatment) stood at 0. In data set [1] (patients presenting with necrosis, before treatment (baseline)), the “self-reported pain level before treatment” value is given as 4.5. Also, in data set [1], the “self-assessed pain, 6 hours” value turned out to be 0.7; the “self-assessed pain, 24 hours” value came to 0.5; the “self-assessed pain, 48 hours” value was 0.4; the “self-assessed pain, 120 hours” value came to 0.2. In addition, in data set [1], the “self-assessed pain, Before” value came out at 3.1. Also, the “radiographic appearance of retreated root (FIG. 8)” value in data set [3] (after endodontic retreatment with TCA) was “thicker irregular deformed material that fully fills the root tip”. Moreover, in data set [3] (setting [5]), the bleeding result is on record as “lessened bleeding or elimination of bleeding altogether” and the cleanliness of apex entry was “cleaner apex”. Moreover, in data set [3] (setting [6]), the inflammation entry is “less inflammation” and the pain entry is “reduced pain”. Also, in data set [3] (in vivo), the “access of debridement composition to microscopic root canal branches, fins, and anastomoses” value is recorded as “improved access”; the “removal of debris and material from prior endodontic treatment” value is recorded as “improved removal of debris”. Also, the pKa in data set [4] is reported as around 0.6.
